Source: the supplement of paper PMC3974653
Where a name gives a salt, the structure may show the parent alone.

Tested on: MTT (mouse pheochromocytoma)
Assay: IC50 of cell viability (ATP content)
Conditions: (24 or 48 h)
In short: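 Cells of the MTT mouse pheochromocytoma line, 5 µl per well at 200,000 cells/ml, were grown overnight at 37°C, 5% CO2 in white 1536-well plates with DMEM, 5% FBS and 1% horse serum. Pintool transfer then delivered 23 nl of library compound in DMSO, giving 8 final concentrations from 0.5 nM to 46 µM, for an exposure of 24 or 48 hrs. Luminescence from CellTiter-Glo was read after 15 minutes and referenced to positive-control wells (100%) and DMSO wells (0%). IC50 was calculated with a four-parameter logistic fit.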

Row | IC50 of cell viability [µM] | Structure (SMILES)
1 | > 46 | CCOC(=O)C(CCc1ccccc1)NC(C)C(=O)N1Cc2cc(OC)c(OC)cc2CC1C(=O)O (centres undefined) [MOEXIPRIL HYDROCHLORIDE]
2 | > 46 | CCOC(=O)c1cc(-c2ccccc2)nc2ccc(C)cc12 [Neocinchophen]
3 | > 46 | COc1ccccc1Oc1c(N[S+](=O)([O-])c2ccc(C(C)(C)C)cc2)nc(-c2ncccn2)nc1OCCO [BOSENTAN]
4 | > 46 | CCCC(=O)O[C@]1(C(=O)COC(=O)CC)CC[C@@H]2[C@@H]3CCC4=CC(=O)CC[C@]4(C)[C@H]3[C@@H](O)C[C@@]21C [HYDROCORTISONE PROBUTATE]
5 | > 46 | Cc1noc(N[S+](=O)([O-])c2ccc(N)cc2)c1C [Sulfisoxazole]
6 | > 46 | CCCCCCCC(=O)OCC(O)CO (centres undefined) [MONOCTANOIN]
7 | > 46 | Cc1cccc(C)c1NC(=O)[C@H](C)N [Tocainide hydrochloride]
8 | > 46 | CCc1cc(C(N)=S)ccn1 [Ethionamide]
9 | > 46 | CCN(CC)Cc1cc(Nc2ccnc3cc(Cl)ccc23)ccc1O.Cl.Cl.O.O [Amodiaquin dihydrochloride dihydrate]
10 | > 46 | CC(=O)O[C@]1(C(C)=O)CCC2C3CCC4=CC(=O)CCC4(C)C3(F)C(O)CC21C (some centres undefined) [Flurogestone acetate]
11 | > 46 | O=C(O)Cc1cccc(-c2cc(CCCCCCc3ccc(O[C@H]4O[C@H](CO)[C@@H](O)[C@H](O)[C@@H]4O)c(-c4cccc(CC(=O)O)c4)c3)ccc2O[C@H]2O[C@H](CO)[C@@H](O)[C@H](O)[C@@H]2O)c1 [BIMOSIAMOSE DISODIUM]
12 | > 46 | CC1CC(OC(=O)C(O)c2ccccc2)CC(C)(C)C1 (centres undefined) [CYCLANDELATE]
13 | > 46 | CCC(CC)(CC(=O)Nc1cccc(/C=C/c2nc(C3CCC3)cs2)c1)C(=O)O [CINALUKASTUM]
14 | > 46 | COCCc1ccc(OCC(O)CNC(C)C)cc1 (racemic) [(±)-Metoprolol (+)-tartrate salt]
15 | > 46 | CCNC(=O)NCc1cccc(Cl)c1 [Lozilurea]
16 | > 46 | CC[C@H](C)C(=O)O[C@H]1C[C@@H](C)\C=C2\C=C/[C@H](C)[C@H](CC[C@@H]3C[C@@H](O)CC(=O)O3)[C@@H]12 [Lovastatin]
17 | > 46 | CC(C)c1nc(N(C)[S+](C)(=O)[O-])nc(-c2ccc(F)cc2)c1/C=C/C(O)CC(O)CC(=O)O (centres undefined) [ROSUVASTATIN]
18 | > 46 | CCO[C@H]1O[C@@H]([C@H](COCc2ccccc2)OCc2ccccc2)[C@@H](OCc2ccccc2)[C@@H]1O [Tribenoside]

Row | IC50 of cell viability [µM] | Structure (SMILES)
19 | > 46 | C[S+](C)CC[C@H](N)C(=O)O [METHYLMETHIONINE SULFONIUM CHLORIDE]
20 | > 46 | CCCCCC1Nc2cc(C(F)(F)F)c([S+](N)(=O)[O-])cc2[S+](=O)([O-])N1 (centres undefined) [PENFLUTIZIDE]
21 | > 46 | O=C(O)CCC(=O)Nc1ccc([S+](=O)([O-])Nc2nccs2)cc1 [Succinylsulfathiazole]
22 | > 46 | CC(/C=C1\SC(=S)N(CC(=O)O)C1=O)=C\c1ccccc1 [Epalrestat]
23 | > 46 | CCN(CC)C(=S)S [DITIOCARBUM NATRICUM]
24 | > 46 | COCCCOc1ccnc(C[S+]([O-])c2nc3ccccc3[n-]2)c1C (centres undefined) [RABEPRAZOLE SODIUM]
25 | > 46 | O=P([O-])([O-])OC(CO)CO [Glycerol phosphate calcium salt]
26 | > 46 | COc1cc(N[S+](=O)([O-])c2ccc(N)cc2)nc(OC)n1 [Sulfadimethoxine]
27 | > 46 | CCCn1c(=O)[nH]c(=O)c2[nH]cnc21 [3-n-PROPYLXANTHINE]
28 | > 46 | Cn1c(=O)c2c(ncn2CCO)n(C)c1=O [7-(beta-HYDROXYETHYL)THEOPHYLLINE]
29 | > 46 | CCOC(=O)c1cccc(N)c1 [TRICAINE METHANESULFONATE]
30 | > 46 | OC[C@@H]1O[C@](CO)(O[C@H]2O[C@H](CO)[C@@H](O)[C@H](O)[C@H]2O)[C@H](O)[C@H]1O [INULIN (HYDROXYMETHYL, C-14)]
31 | > 46 | CCCCNc1ccc(C(=O)OCCOCCOCCOCCOCCOCCOCCOCCOCCOC)cc1 [Benzonatate]
32 | > 46 | O=C([O-])c1nc(O)nc(O)n1 [OTERACIL POTASSIUM]
33 | > 46 | CN(C)c1ccc(O)c2c1CC1CC3C(N(C)C)C(=O)C(C(N)=O)C(=O)C3(O)C(=O)C1C2=O (centres undefined) [Minocycline]
34 | > 46 | C[C@H]1C[C@H]2[C@@H]3CCC4=CC(=O)C=C[C@]4(C)[C@H]3C(=O)C[C@]2(C)[C@@]1(O)C(=O)CO [Meprednisone]
35 | > 46 | CCCN(CCC)C(=O)C(CCC(=O)OCCCN1CCN(CCOC(=O)Cc2c(C)n(C(=O)c3ccc(Cl)cc3)c3ccc(OC)cc23)CC1)NC(=O)c1ccccc1 (centres undefined) [Proglumetacin maleate]
36 | > 46 | COc1cc(/C=C/C(=O)O[C@H]2CC[C@]34C[C@]35CC[C@]3(C)[C@@H]([C@H](C)CCC=C(C)C)CC[C@@]3(C)C5CCC4C2(C)C)ccc1O (some centres undefined) [GAMMA ORYZANOL]

The next lines start with the compound.

Row | Structure (SMILES) | IC50 of cell viability [µM]
37 | CCCCCCCCCC(=O)O[C@H]1CC[C@H]2[C@@H]3CCC4=CC(=O)CC[C@@H]4[C@H]3CC[C@]12C [Nandrolone decanoate] | > 46
38 | OC(CCN1CCCCC1)(c1ccccc1)c1ccccc1 [pridinol] | > 46
39 | CC(=O)O[C@H]1CC[C@@]2(C)C(=CC[C@H]3[C@@H]4CC[C@H](C(C)=O)[C@@]4(C)CC[C@@H]32)C1 [3BETA-ACETOXY-5-PREGNENE-20-ONE] | > 46
40 | Cn1sc(Cl)cc1=O [METHYLCHLOROISOTHIAZOLINONE] | > 46
41 | CNC1=C[N+]([O-])=C(c2ccccc2)c2cc(Cl)ccc2N1 [CHLORDIAZEPOXIDE] | > 46
42 | C[C@]12CC[C@@H]3c4ccc(O)cc4CC[C@H]3[C@@H]1C[C@H](O)C2O (some centres undefined) [Epiestriol] | > 46
43 | O=C1CCO1 [beta-Propiolactone] | > 46
44 | CC[N+]1(C)CCCC(OC(=O)C(O)(c2ccccc2)c2ccccc2)C1.[Br-] (centres undefined) [PIPENZOLATE BROMIDE] | > 46
45 | C=Cc1ccc(C=C)cc1.C=Cc1ccccc1.CC(C)N(Cc1ccccc1)C(C)C [Diisopropylaminomethyl-polystyrene] | > 46
46 | C[N+]1(C)CCC[C@H](OC(=O)C(O)(c2ccccc2)c2ccccc2)C1 [Mepenzolate bromide] | > 46
47 | O=C(Nc1ccc(Cl)cc1)Nc1ccc(Cl)c(C(F)(F)F)c1 [Cloflucarban] | > 46
48 | CC(C)NC(C)Cc1ccc(I)cc1.Cl (centres undefined) [Iofetamine hydrochloride] | > 46
49 | CN(C)CCCN1c2ccccc2C(C)(C)c2ccccc21 [Dimetacrine] | > 46
50 | N[C@@H]1C[C@H]1c1ccccc1 [Tranylcypromine hydrochloride] | > 46
51 | Cl.O.O=C1Cc2cc(CCN3CCN(c4nsc5ccccc45)CC3)c(Cl)cc2N1 [Ziprasidone hydrochloride monohydrate] | > 46
52 | COP(=S)(OC)Oc1ccc([S+](N)(=O)[O-])cc1 [Cythioate] | > 46
53 | Clc1ccccc1Cl [1,2-Dichlorobenzene] | > 46

Row | Structure (SMILES) | IC50 of cell viability [µM]
54 | CN1C2CCC1C(C(=O)O)C(OC(=O)c1ccccc1)C2 (single isomer, unassigned; (-)) [(-)-Benzoylecgonine] | > 46
55 | S=C(SSC(=S)N1CCCCC1)N1CCCCC1 [Dicyclopentamethylenethiuram disulfide] | > 46
56 | COC1CC(O[C@H]2/C(C)=C/CC3CC(C[C@]4(CCC(C)C(C5CCCCC5)O4)O3)OC(=O)[C@H]3C=C(C)/C(=N/O)C4OC/C(=C\C=C\[C@@H]2C)[C@@]43O)OC(C)C1O (some centres undefined) [SELAMECTIN] | > 46
57 | NP(N)(=O)NC(=O)c1ccc(F)cc1 [Flurofamide] | > 46
58 | CN1[C@@H]2CC[C@H]1CC(OC(c1ccccc1)c1ccccc1)C2.C[S+](=O)([O-])O (some centres undefined) [Benztropine] | > 46
59 | CN1C(=O)CN=C(c2ccccc2)c2cc([N+](=O)[O-])ccc21 [nimetazepam] | > 46
60 | CCOC(=O)CC(SP(=S)(OC)OC)C(=O)OCC (centres undefined) [Malathion] | > 46
61 | CCCC(C)C1(CC)C(=O)N\C(=N/C1=O)O (centres undefined) [PENTOBARBITAL] | > 46
62 | CN(C)[C@@H]\1[C@H]2C[C@H]3\C(=C(\O)[C@@]2(O)C(=O)\C(=C1O)C(=O)NCN4CCCC4)C(=O)C5=C(C=CC=C5O)[C@]3(C)O [Solvocillin] | > 46
63 | F/C(COc1ccc2c(c1)[nH]c1ccccc12)=C1/CN2CCC1CC2 | > 46
64 | N=C(N)NCc1cccc(I)c1.N=C(N)NCc1cccc(I)c1.O=[S+]([O-])(O)O [m-Iodobenzylguanidine hemisulfate] | > 46
65 | CCCC(C)C1(CC)C(=O)NC(=S)NC1=O (centres undefined) [THIOPENTAL SODIUM] | > 46
66 | c1cnc2cc3c(cc2n1)[C@@H]1CNC[C@@H]3C1 [Varenicline Tartrate] | > 46
67 | CCOP(=S)(OCC)Oc1cc(C)nc(C(C)C)n1 [Diazinon] | > 46
68 | CCN(CCCc1ccccc1)CCCc1ccccc1.O=C(O)CC(O)(CC(=O)O)C(=O)O [Alverine citrate salt] | > 46
69 | COC1=C2O\C(=C/C(=O)C2=C(OC)C3=C1OC=C3)C [Khellin] | > 46
